Experimental data: patent US20080085246A1, “Use of Eugenol Acetate as an Agent Against Bad Breath” (SYMRISE GMBH & CO. KG, priority 2004, published 2008)

Legend:
[1] = tested on: liquid medium inoculated with fresh morning saliva; assay: In vitro test for reduction of bad breath (inoculated medium smelled by a panel of testers)
Pseudomonas aeruginosa = assay: Minimum inhibitory concentration, series dilution test; type: cell-based
Description: (§1) The minimum inhibitory concentration (MIC) of eugenol acetate was determined in the series dilution test against various bacteria.

Staphylococcus aureus = assay: as above; type: cell-based
Description: as §1

Streptococcus mutans = assay: as above; type: cell-based
Description: as §1

Prevotella intermedia = assay: as above; type: cell-based
Description: as §1

Escherichia coli = assay: as above; type: cell-based
Description: as §1

Porphyromonas gingivalis = assay: as above; type: cell-based
Description: as §1

Fusobacterium nucleatum = assay: as above; type: cell-based
Description: as §1

[2] = tested on: total number of germs in the oral saliva samples; assay: Total number of germs in oral saliva samples; type: cell-based; conditions: 1,000 ppm

MIC (Pseudomonas aeruginosa): > 1000 µg/mL
MIC (Staphylococcus aureus): > 1000 µg/mL
MIC (Streptococcus mutans): > 1000 µg/mL
MIC (Prevotella intermedia): 500 µg/mL
MIC (Escherichia coli): > 1000 µg/mL
MIC (Porphyromonas gingivalis): 1000 µg/mL
MIC (Fusobacterium nucleatum): 500 µg/mL
SMILES: C=CCc1ccc(OC(C)=O)c(OC)c1 [eugenol acetate, 4-allyl-2-methoxyphenyl acetate]
smell after the incubation time ([1]; 0.01% added to inoculated samples, 37 °C for some days): no smell
smell at sensory evaluation ([1]; 0.05% added to the inoculated medium only one hour before the sensory evaluation): unpleasant mixed smell of bad breath and a weak eugenol acetate note
minimum active concentration ([1]; inoculated samples, no smell after incubation): 0.01%
smell after the incubation time ([1]; significantly lower concentrations than 0.01%): a changed intrinsic smell or a mixed smell was perceptible in some cases
Type (Pseudomonas aeruginosa): no action up to 1,000 ppm
Type (Staphylococcus aureus): no action up to 1,000 ppm
Type (Streptococcus mutans): no action up to 1,000 ppm
Type (Prevotella intermedia; 500 ppm): bactericidal action
Type (Escherichia coli): no action up to 1,000 ppm
Type (Fusobacterium nucleatum; 500 ppm): bactericidal action
reduction in respect of the total number of germs [2]: no significant reduction
